Laboratory results reported in US9179694B2, “Method and composition for enhancing milk production and milk component concentrations” (PURINA ANIMAL NUTRITION LLC, priority 2003, dated 2015).
Marks after values point to notes of the source that are not given here.

Test: Total solids content of produced milk in sorbitol feeding trials
Type: in vivo, Holstein cows
Settings: for Total Solids in Produced Milk: Pre-Partum Trial #1 (75/0/0 g/day in wk −3..−1/+1..+4/+5..+8)
Protocol: To determine the weight percent total solids, wet basis, in a sample, the actual weight of total solids is determined by analyzing the sample in accordance with Method #925.23 (33.2.09) of Official Methods of Analysis, Association of Official Analytical Chemists (AOAC) (16th Ed., 1995). The weight percent total solids, wet basis, is then calculated by dividing the actual weight of total solids by the actual weight of the sample. Each cow of each of the six different trials (Control Trial #1, Control Trial #2, Pre-Partum Trial #1, Pre-Partum Trial #2, Pre/Post Trial #1, and Pre/Post Trial #2) was milked three times daily and the weight of produced milk by each cow was recorded at each milking. The milk from each cow was sampled once per week (⅓ of the sample volume from each of the three milkings occurring on the weekly milk sampling day) and was analyzed for true protein, total fat, lactose, and total solids, as detailed in the property determination and characterization techniques presented above. Additionally, samples of blood were periodically obtained from each cow during the four trials (Control Trial 2, Pre-Partum Trial #2, Pre/Post Trial #1, and Pre/Post Trial #2) encompassed in Example Two and were analyzed for non-esterified fatty acid (NEFA) content as detailed in the property determination and characterization techniques presented above. No NEFA analysis was conducted on the cows employed in Control Trial #1 or Pre-Partum Trial #1 that are the subject of Example One. Example One includes Control Trial #1 and Pre-Partum Trial #1. Both primiparious cows and multiparious cows were included in Control Trial #1 and Pre-Partum Trial #1. Five primiparious cows and fifteen multiparious cows were included in Control Trial #1; likewise, five primiparious cows and fifteen multiparious cows were included in Pre-Partum Trial #1. All cows included in Control Trial #1 and Pre-Partum Trial #1 were Holsteins. Example Two includes Control Trial #2, Pre-Partum Trial #2, Pre/Post Trial #1, and Pre/Post Trial #2. Only multiparious, Holstein cows were included in Control Trial #2, […], Pre/Post Trial #1, and Pre/Post Trial #2. Eighteen multiparious cows were included in both Control Trial #2 and Pre-Partum Trial #2, while sixteen multiparious cows were included in Pre/Post Trial #1 and seventeen multiparious cows were included in Pre/Post Trial #2.

## OC[C@@H](O)[C@@H](O)[C@H](O)[C@@H](O)CO [sorbitol]
Multiparious cows, weeks +1 through +8
  Total Solids in Produced Milk: 12.0^ab wt %
Primiparious cows, weeks +1 through +8
  Total Solids in Produced Milk: 13.0 wt %
Pre-Partum Trial #1 (75 g/day wk −3..−1 only) versus Control Trial #1, primiparious cows, weeks +1 through +8
  increase in total solids concentration in the produced milk: 7.4%
Pre-Partum Trial #2 (75/0/100 g/day in wk −3..−1/+1..+4/+5..+8), multiparious cows, week +1
  Total Solids Content of Produced Milk: 14.4^a weight %
Pre-Partum Trial #2 (75/0/100 g/day in wk −3..−1/+1..+4/+5..+8), multiparious cows, week +2
  Total Solids Content of Produced Milk: 13.25 weight %
Pre-Partum Trial #2 (75/0/100 g/day in wk −3..−1/+1..+4/+5..+8), multiparious cows, week +3
  Total Solids Content of Produced Milk: 12.54 weight %
Pre-Partum Trial #2 (75/0/100 g/day in wk −3..−1/+1..+4/+5..+8), multiparious cows, week +4
  Total Solids Content of Produced Milk: 11.76^a weight %
Pre-Partum Trial #2 (75/0/100 g/day in wk −3..−1/+1..+4/+5..+8), multiparious cows, week +5
  Total Solids Content of Produced Milk: 11.60^a weight %
Pre-Partum Trial #2 (75/0/100 g/day in wk −3..−1/+1..+4/+5..+8), multiparious cows, week +6
  Total Solids Content of Produced Milk: 11.43^a weight %
Pre-Partum Trial #2 (75/0/100 g/day in wk −3..−1/+1..+4/+5..+8), multiparious cows, week +7
  Total Solids Content of Produced Milk: 11.55 weight %
Pre-Partum Trial #2 (75/0/100 g/day in wk −3..−1/+1..+4/+5..+8), multiparious cows, week +8
  Total Solids Content of Produced Milk: 11.45^ab weight %
Pre-Partum Trial #2 (75/0/100 g/day in wk −3..−1/+1..+4/+5..+8), multiparious cows, weeks +1 through +4
  Total Solids Content of Produced Milk: 12.94^a weight %
Pre-Partum Trial #2 (75/0/100 g/day in wk −3..−1/+1..+4/+5..+8), multiparious cows, weeks +1 through +8
  Total Solids Content of Produced Milk: 12.23^a weight %
Pre-Partum Trial #2 (75/0/100 g/day in wk −3..−1/+1..+4/+5..+8), multiparious cows, weeks +5 through +8
  Total Solids Content of Produced Milk: 11.51^a weight %
Pre/Post Trial #1 (150/125/100 g/day in wk −3..−1/+1..+4/+5..+8), multiparious cows, week +1
  Total Solids Content of Produced Milk: 15.3^ab weight %
Pre/Post Trial #1 (150/125/100 g/day in wk −3..−1/+1..+4/+5..+8), multiparious cows, week +1, two-trial comparison with Control Trial #2 (Table 26)
  Total Solids Content of Produced Milk: 15.3 weight %
Pre/Post Trial #1 (150/125/100 g/day in wk −3..−1/+1..+4/+5..+8), multiparious cows, week +2
  Total Solids Content of Produced Milk: 12.28 weight %
Pre/Post Trial #1 (150/125/100 g/day in wk −3..−1/+1..+4/+5..+8), multiparious cows, week +2, two-trial comparison with Control Trial #2 (Table 26)
  Total Solids Content of Produced Milk: 13.28 weight %
Pre/Post Trial #1 (150/125/100 g/day in wk −3..−1/+1..+4/+5..+8), multiparious cows, week +3
  Total Solids Content of Produced Milk: 12.84 weight %
Pre/Post Trial #1 (150/125/100 g/day in wk −3..−1/+1..+4/+5..+8), multiparious cows, week +3, two-trial comparison with Control Trial #2 (Table 26)
  Total Solids Content of Produced Milk: 12.84 weight %
Pre/Post Trial #1 (150/125/100 g/day in wk −3..−1/+1..+4/+5..+8), multiparious cows, week +4
  Total Solids Content of Produced Milk: 12.54^c weight %
Pre/Post Trial #1 (150/125/100 g/day in wk −3..−1/+1..+4/+5..+8), multiparious cows, week +4, two-trial comparison with Control Trial #2 (Table 26)
  Total Solids Content of Produced Milk: 12.54 weight %
Pre/Post Trial #1 (150/125/100 g/day in wk −3..−1/+1..+4/+5..+8), multiparious cows, week +5
  Total Solids Content of Produced Milk: 12.17^ab weight %
Pre/Post Trial #1 (150/125/100 g/day in wk −3..−1/+1..+4/+5..+8), multiparious cows, week +5, two-trial comparison with Control Trial #2 (Table 26)
  Total Solids Content of Produced Milk: 12.17 weight %
Pre/Post Trial #1 (150/125/100 g/day in wk −3..−1/+1..+4/+5..+8), multiparious cows, week +6
  Total Solids Content of Produced Milk: 12.08^b weight %
Pre/Post Trial #1 (150/125/100 g/day in wk −3..−1/+1..+4/+5..+8), multiparious cows, week +6, two-trial comparison with Control Trial #2 (Table 26)
  Total Solids Content of Produced Milk: 12.08 weight %
Pre/Post Trial #1 (150/125/100 g/day in wk −3..−1/+1..+4/+5..+8), multiparious cows, week +7
  Total Solids Content of Produced Milk: 11.71 weight %
Pre/Post Trial #1 (150/125/100 g/day in wk −3..−1/+1..+4/+5..+8), multiparious cows, week +7, two-trial comparison with Control Trial #2 (Table 26)
  Total Solids Content of Produced Milk: 11.71 weight %
Pre/Post Trial #1 (150/125/100 g/day in wk −3..−1/+1..+4/+5..+8), multiparious cows, week +8
  Total Solids Content of Produced Milk: 12.06^b weight %
Pre/Post Trial #1 (150/125/100 g/day in wk −3..−1/+1..+4/+5..+8), multiparious cows, week +8, two-trial comparison with Control Trial #2 (Table 26)
  Total Solids Content of Produced Milk: 12.06 weight %
Pre/Post Trial #1 (150/125/100 g/day in wk −3..−1/+1..+4/+5..+8), multiparious cows, weeks +1 through +4
  Total Solids Content of Produced Milk: 13.49^ab weight %
Pre/Post Trial #1 (150/125/100 g/day in wk −3..−1/+1..+4/+5..+8), multiparious cows, weeks +1 through +4, two-trial comparison with Control Trial #2 (Table 26)
  Total Solids Content of Produced Milk: 13.49 weight %
Pre/Post Trial #1 (150/125/100 g/day in wk −3..−1/+1..+4/+5..+8), multiparious cows, weeks +1 through +8
  Total Solids Content of Produced Milk: 12.76^b weight %
Pre/Post Trial #1 (150/125/100 g/day in wk −3..−1/+1..+4/+5..+8), multiparious cows, weeks +1 through +8, two-trial comparison with Control Trial #2 (Table 26)
  Total Solids Content of Produced Milk: 12.76 weight %
Pre/Post Trial #1 (150/125/100 g/day in wk −3..−1/+1..+4/+5..+8), multiparious cows, weeks +5 through +8
  Total Solids Content of Produced Milk: 12.02^b weight %
Pre/Post Trial #1 (150/125/100 g/day in wk −3..−1/+1..+4/+5..+8), multiparious cows, weeks +5 through +8, two-trial comparison with Control Trial #2 (Table 26)
  Total Solids Content of Produced Milk: 12.02 weight %
Pre/Post Trial #1 (150/125/100 g/day) versus Control Trial #2, multiparious cows, weeks +1 through +4 (Table 26)
  increase in total solids concentration in milk: more than 3.7%
Pre/Post Trial #1 (150/125/100 g/day) versus Control Trial #2, multiparious cows, weeks +1 through +8
  greater total solids concentration in milk: 4.6%
Pre/Post Trial #1 (150/125/100 g/day) versus Control Trial #2, multiparious cows, weeks +1 through +8 (Table 26)
  increase in total solids concentration in milk: ~4.6%
Pre/Post Trial #1 (150/125/100 g/day) versus Control Trial #2, multiparious cows, weeks +5 through +8
  greater total solids concentration in milk: 5.2%
Pre/Post Trial #1 (150/125/100 g/day) versus Control Trial #2, multiparious cows, weeks +5 through +8 (Table 26)
  increase in total solids concentration in milk: more than 5.2%
Pre/Post Trial #1 (150/125/100 g/day) versus Pre-Partum Trial #2 (75/0/100 g/day), multiparious cows, weeks +1 through +8
  greater total solids concentration in milk: 4.3%
Pre/Post Trial #1 (150/125/100 g/day) versus Pre-Partum Trial #2 (75/0/100 g/day), multiparious cows, weeks +5 through +8
  greater total solids concentration in milk: 4.4%
Pre/Post Trial #2 (75/75/100 g/day in wk −3..−1/+1..+4/+5..+8), multiparious cows, week +1
  Total Solids Content of Produced Milk: 15.6^b weight %
Pre/Post Trial #2 (75/75/100 g/day in wk −3..−1/+1..+4/+5..+8), multiparious cows, week +2
  Total Solids Content of Produced Milk: 13.61 weight %
Pre/Post Trial #2 (75/75/100 g/day in wk −3..−1/+1..+4/+5..+8), multiparious cows, week +3
  Total Solids Content of Produced Milk: 12.92 weight %
Pre/Post Trial #2 (75/75/100 g/day in wk −3..−1/+1..+4/+5..+8), multiparious cows, week +4
  Total Solids Content of Produced Milk: 12.43^bc weight %
Pre/Post Trial #2 (75/75/100 g/day in wk −3..−1/+1..+4/+5..+8), multiparious cows, week +5
  Total Solids Content of Produced Milk: 12.38^b weight %
Pre/Post Trial #2 (75/75/100 g/day in wk −3..−1/+1..+4/+5..+8), multiparious cows, week +6
  Total Solids Content of Produced Milk: 11.89^ab weight %
Pre/Post Trial #2 (75/75/100 g/day in wk −3..−1/+1..+4/+5..+8), multiparious cows, week +7
  Total Solids Content of Produced Milk: 11.64 weight %
Pre/Post Trial #2 (75/75/100 g/day in wk −3..−1/+1..+4/+5..+8), multiparious cows, week +8
  Total Solids Content of Produced Milk: 11.57^ab weight %
Pre/Post Trial #2 (75/75/100 g/day in wk −3..−1/+1..+4/+5..+8), multiparious cows, weeks +1 through +4
  Total Solids Content of Produced Milk: 13.63^b weight %
Pre/Post Trial #2 (75/75/100 g/day in wk −3..−1/+1..+4/+5..+8), multiparious cows, weeks +1 through +8
  Total Solids Content of Produced Milk: 12.73^b weight %
Pre/Post Trial #2 (75/75/100 g/day in wk −3..−1/+1..+4/+5..+8), multiparious cows, weeks +5 through +8
  Total Solids Content of Produced Milk: 11.87^ab weight %
Pre/Post Trial #2 (75/75/100 g/day) versus Control Trial #2, multiparious cows, weeks +1 through +4
  greater total solids concentration in milk: 4.8%
Pre/Post Trial #2 (75/75/100 g/day) versus Control Trial #2, multiparious cows, weeks +1 through +8
  greater total solids concentration in milk: 4.3%
Pre/Post Trial #2 (75/75/100 g/day) versus Pre-Partum Trial #2 (75/0/100 g/day), multiparious cows, weeks +1 through +4
  greater total solids concentration in milk: 5.3%
Pre/Post Trial #2 (75/75/100 g/day) versus Pre-Partum Trial #2 (75/0/100 g/day), multiparious cows, weeks +1 through +8
  greater total solids concentration in milk: 4.1%
Average of means of Pre-Partum Trial #2, Pre/Post Trial #1 and Pre/Post Trial #2 versus Control Trial #2, multiparious cows, weeks +1 through +4
  increase in total solids concentration in milk: 2.7%
Average of means of Pre-Partum Trial #2, Pre/Post Trial #1 and Pre/Post Trial #2 versus Control Trial #2, multiparious cows, weeks +1 through +8
  increase in total solids concentration in milk: 1.1%
Average of means of Pre-Partum Trial #2, Pre/Post Trial #1 and Pre/Post Trial #2 versus Control Trial #2, multiparious cows, weeks +5 through +8
  increase in total solids concentration in milk: 3.3%
